Experimental data taken from ChEMBL document CHEMBL5036362, “Salidroside Promotes Sensitization to Doxorubicin in Human Cancer Cells by Affecting the PI3K/Akt/HIF Signal Pathway and Inhibiting the Expression of Tumor-Resistance-Related Proteins” (J Nat Prod, 2022).
Calls of active or inactive are those of the source. No cut-off for these calls is given here.

Experiments:
[1] = test system: HeLa; assay: Cytotoxicity against human HeLa cells assessed as reduction in cell viability measured after 48 hrs by CCK-8 assay; assay type: functional
[2] = Toxicity in BALB/c nude mouse xenografted with human HeLa cells assessed as change in body weight at 1 mg/kg, ip administered every 2 days for 18 days; assay type: organism-based; conditions: in vivo, 432 h, time 18 day
[3] = test system: HeLa; assay: Induction of morphological change in human HeLa cells assessed as reduction in size measured after 48 hrs by CCK-8 assay; assay type: functional, cell-based
[4] = Toxicity in BALB/c nude mouse xenografted with human HeLa cells assessed as induction of breathing difficulties at 1 mg/kg, ip administered every 2 days for 18 days; assay type: organism-based; conditions: in vivo, 432 h, time 18 day
[5] = test system: HeLa; assay: Induction of morphological change in human HeLa cells assessed as cell shrinkage measured after 48 hrs by CCK-8 assay; assay type: functional, cell-based
[6] = Toxicity in BALB/c nude mouse xenografted with human HeLa cells assessed as inflammation in myocardial tissue at 1 mg/kg, ip administered every 2 days for 18 days by H and E staining; assay type: organism-based, Myocardium/plasma; conditions: in vivo, 432 h, time 18 day
[7] = test system: HeLa; assay: Antitumor activity against human HeLa cells xenografted in BALB/c nude mouse assessed as tumor growth inhibition at 1 mg/kg, ip administered every 2 days for 18 days by firefly luciferase based bioluminescence assay; assay type: functional, organism-based; conditions: time 18.0 day
[8] = Induction of MDR1 gene expression in human HeLa cells by qRT-PCR analysis; assay type: functional
[9] = test system: HeLa; assay: Antimigratory activity against human HeLa cells at 0.22 uM measured upto 48 hrs by electron microscope based Wound healing assay relative to control; assay type: functional; conditions: time hrs <=48
[10] = Toxicity in BALB/c nude mouse xenografted with human HeLa cells assessed as induction of convulsions at 1 mg/kg, ip administered every 2 days for 18 days; assay type: organism-based; conditions: in vivo, 432 h, time 18 day
[11] = Toxicity in BALB/c nude mouse xenografted with human HeLa cells assessed as induction of incontinence at 1 mg/kg, ip administered every 2 days for 18 days; assay type: organism-based; conditions: in vivo, 432 h, time 18 day
[12] = Toxicity in BALB/c nude mouse xenografted with human HeLa cells assessed as induction of fainting at 1 mg/kg, ip administered every 2 days for 18 days; assay type: organism-based; conditions: in vivo, 432 h, time 18 day
[13] = Toxicity in DOX induced BALB/c nude mouse xenografted with human HeLa cells assessed as induction of incontinence at 80 mg/kg, ig administered every 2 days for 18 days; assay type: organism-based; conditions: in vivo, po, 432 h, time 18 day
[14] = Toxicity in BALB/c nude mouse xenografted with human HeLa cells assessed as induction of convulsions at 80 mg/kg, ig administered every 2 days for 18 days; assay type: organism-based; conditions: in vivo, po, 432 h, time 18 day
[15] = Toxicity in DOX induced BALB/c nude mouse xenografted with human HeLa cells assessed as induction of breathing difficulties at 80 mg/kg, ig administered every 2 days for 18 days; assay type: organism-based; conditions: in vivo, po, 432 h, time 18 day
[16] = Toxicity in DOX induced BALB/c nude mouse xenografted with human HeLa cells assessed as change in body weight at 80 mg/kg, ig administered every 2 days for 18 days; assay type: organism-based; conditions: in vivo, po, 432 h, time 18 day
[17] = test system: HeLa; assay: Antitumor activity against DOX induced human HeLa cells xenografted in BALB/c nude mouse assessed as induction of apoptosis by measuring increase in TUNEL positive nuclei at 80 mg/kg, ig administered every 2 days for 18 days by TUNEL staining based assay; assay type: functional, organism-based; conditions: time 18.0 day
[18] = test system: HeLa; assay: Inhibition of hypoxia-inducible factor 1 alpha in DOX induced human HeLa cells assessed as downregulation of protein at 0.017 mmol/L after 48 hrs by Western blotting analysis; assay type: functional
[19] = test system: HeLa; assay: Downregulation of doxorubicin induced Bcl-2 protein expression in human HeLa cells after 48 hrs by western blotting analysis; assay type: functional, cell-based
[20] = test system: HeLa; assay: Downregulation of AKT protein expression in human HeLa cells after 48 hrs by western blotting analysis; assay type: functional, cell-based
[21] = test system: HeLa; assay: Downregulation of PI3K protein expression in human HeLa cells after 48 hrs by western blotting analysis; assay type: functional, cell-based
[22] = test system: HeLa; assay: Cytotoxicity against human HeLa cells assessed as potentiation of doxorubicin induced cell survival measured after 72 hrs by CCK-8 assay; assay type: functional
[23] = test system: HeLa; assay: Downregulation of doxorubicin induced MMP-9 protein expression in human HeLa cells after 48 hrs by western blotting analysis; assay type: functional, cell-based
[24] = test system: HeLa; assay: Downregulation of doxorubicin induced MMP-2 protein expression in human HeLa cells after 48 hrs by western blotting analysis; assay type: functional, cell-based
[25] = test system: HeLa; assay: Downregulation of MMP-9 protein expression in human HeLa cells after 48 hrs by western blotting analysis; assay type: functional, cell-based
[26] = Toxicity in BALB/c nude mouse xenografted with human HeLa cells assessed as induction of incontinence at 80 mg/kg, ig administered every 2 days for 18 days; assay type: organism-based; conditions: in vivo, po, 432 h, time 18 day
[27] = test system: HeLa; assay: Inhibition of potentiation of doxorubicin induced cell migration in human HeLa cells measured upto 48 hrs by electron microscope based Wound healing assay relative to control; assay type: functional; conditions: time hrs <=48
[28] = test system: HeLa; assay: Downregulation of doxorubicin induced PI3K protein expression in human HeLa cells after 48 hrs by western blotting analysis; assay type: functional, cell-based
[29] = test system: HeLa; assay: Downregulation of Bcl-2 protein expression in human HeLa cells after 48 hrs by western blotting analysis; assay type: functional, cell-based
[30] = Toxicity in DOX induced BALB/c nude mouse xenografted with human HeLa cells assessed as induction of convulsions at 80 mg/kg, ig administered every 2 days for 18 days; assay type: organism-based; conditions: in vivo, po, 432 h, time 18 day
[31] = Toxicity in BALB/c nude mouse xenografted with human HeLa cells assessed as induction of breathing difficulties at 80 mg/kg, ig administered every 2 days for 18 days; assay type: organism-based; conditions: in vivo, po, 432 h, time 18 day
[32] = Toxicity in DOX induced BALB/c nude mouse xenografted with human HeLa cells assessed as induction of fainting at 80 mg/kg, ig administered every 2 days for 18 days; assay type: organism-based; conditions: in vivo, po, 432 h, time 18 day
[33] = test system: Mus musculus; assay: Effect on DOX induced tissue damage in BALB/c nude mouse xenografted with human HeLa cells assessed as appearance of lesions in glomerular tubule at 80 mg/kg, ig for administered every 2 days for 18 days by H and E staining; assay type: functional, organism-based; conditions: Renal glomerulus, time 18.0 day
[34] = Toxicity in BALB/c nude mouse xenografted with human HeLa cells assessed as potentiation of doxorubicin induced inflammation in myocardial tissue at 80 mg/kg, ig administered every 2 days for 18 days by H and E staining; assay type: organism-based, Myocardium/plasma; conditions: in vivo, po, 432 h, time 18 day
[35] = test system: HeLa; assay: Downregulation of MMP-2 protein expression in human HeLa cells after 48 hrs by western blotting analysis; assay type: functional, cell-based
[36] = test system: HeLa; assay: Upregulation of BAX protein expression in human HeLa cells after 48 hrs by western blotting analysis; assay type: functional, cell-based
[37] = test system: HeLa; assay: Antiproliferative activity against human HeLa cells assessed as inhibition of cell proliferation measured after 48 hrs by CCK-8 assay; assay type: functional, cell-based
[38] = test system: HeLa; assay: Antimigratory activity against human HeLa cells at 0.017 mmol/L measured upto 48 hrs by electron microscope based Wound healing assay relative to control; assay type: functional; conditions: time hrs <=48
[39] = test system: Mus musculus; assay: Effect on DOX induced tissue damage in BALB/c nude mouse xenografted with human HeLa cells assessed as spleen enlargement at 80 mg/kg, ig administered every 2 days for 18 days by H and E staining; assay type: functional, organism-based
[40] = Toxicity in BALB/c nude mouse xenografted with human HeLa cells assessed as change in body weight at 80 mg/kg, ig administered every 2 days for 18 days; assay type: organism-based; conditions: in vivo, po, 432 h, time 18 day
[41] = test system: HeLa; assay: Antitumor activity against human HeLa cells xenografted in BALB/c nude mouse assessed as potentiation of doxorubicin induced tumor growth inhibition at 80 mg/kg, ig administered every 2 days for 18 days by firefly luciferase based bioluminescence assay; assay type: functional, organism-based; conditions: time 18.0 day
[42] = Decrease in MDR1 gene expression in human HeLa cells by qRT-PCR analysis; assay type: functional; conditions: dose 0.017 mol/L; time 48 hrs
[43] = Decrease in MDR1 gene expression in DOX induced human HeLa cells by RT-PCR analysis; assay type: functional
[44] = test system: HeLa; assay: Upregulation of doxorubicin induced BAX protein expression in human HeLa cells after 48 hrs by western blotting analysis; assay type: functional, cell-based
[45] = test system: HeLa; assay: Induction of morphological change in human HeLa cells assessed as potentiation of doxorubicin induced cell shrinkage measured after 48 hrs in by CCK-8 assay; assay type: functional, cell-based
[46] = test system: HeLa; assay: Downregulation of doxorubicin induced AKT protein expression in human HeLa cells after 48 hrs by western blotting analysis; assay type: functional, cell-based
[47] = Toxicity in BALB/c nude mouse xenografted with human HeLa cells assessed as induction of fainting at 80 mg/kg, ig administered every 2 days for 18 days; assay type: organism-based; conditions: in vivo, po, 432 h, time 18 day
[48] = test system: HeLa; assay: Antitumor activity against human HeLa cells xenografted in BALB/c nude mouse assessed as tumor growth inhibition at 80 mg/kg, ig for administered every 2 days for 18 days by firefly luciferase based bioluminescence assay; assay type: functional, organism-based; conditions: time 18.0 day
[49] = test system: Mus musculus; assay: Effect on DOX induced tissue damage in BALB/c nude mouse xenografted with human HeLa cells assessed as inflammatory cell infiltration in liver at 80 mg/kg, ig administered every 2 days for 18 days by H and E staining; assay type: functional, organism-based; conditions: time 18.0 day
[50] = test system: HeLa; assay: Induction of morphological change in human HeLa cells assessed as potentiation of doxorubicin induced reduction in size measured after 48 hrs in presence of doxorubicin by CCK-8 assay; assay type: functional, cell-based

COc1cccc2c1C(=O)c1c(O)c3c(c(O)c1C2=O)C[C@@](O)(C(=O)CO)C[C@@H]3O[C@H]1C[C@H](N)[C@H](O)[C@H](C)O1 [DOXORUBICIN]
Activity [1]: 2.67 µM | Activity [2]: Non-Toxic | Activity [3]: Active | Activity [4]: Non-Toxic | Activity [5]: Active | Activity [6]: Toxic | Activity [7]: inactive | Activity [8]: 8.69 | Activity [9]: 57.14% | Activity [10]: Non-Toxic | Activity [11]: Non-Toxic | Activity [12]: Non-Toxic

OC[C@H]1O[C@@H](OCCc2ccc(O)cc2)[C@H](O)[C@@H](O)[C@@H]1O [SALIDROSIDE]
Activity [1]: 0.183 µM | Activity [13]: Non-Toxic | Activity [14]: Non-Toxic | Activity [3]: Active | Activity [15]: Non-Toxic | Activity [16]: Non-Toxic | Activity [17]: Active | Activity [18]: Active | Activity [19]: Active | Activity [5]: Active | Activity [20]: Active | Activity [21]: Active | Activity [22]: >85% | Activity [23]: Active | Activity [24]: Active | Activity [25]: Active | Activity [26]: Non-Toxic | inhibition (INH) [27]: 18.95% | Activity [28]: Active | Activity [29]: Active | Activity [30]: Non-Toxic | Activity [31]: Non-Toxic | Activity [32]: Non-Toxic | Activity [33]: inactive | Activity [34]: Non-Toxic | Activity [35]: Active | Activity [36]: Active | IC50 [37]: 10.5 µM | Activity [38]: 56.34% | Activity [39]: inactive | Activity [40]: Non-Toxic | Activity [41]: Active | Activity [42]: 1.65 | Activity [43]: 2.76 | Activity [44]: Active | Activity [45]: Active | Activity [46]: Active | Activity [47]: Non-Toxic | Activity [48]: Active | Activity [49]: inactive | Activity [50]: Active
